Test results as given in patent publication US8884011B2, “Nucleotide analogues as precursor molecules for antivirals” (Centre National de la Recherche Scientifique-CNRS, priority 2006, dated 2014).
pEC50: −log10 of the molar value.

How the values were obtained:
[1] = test system: Reovirus-1; assay: Virus panel, CPE assay: Reovirus-1 in Vero cells; assay type: cell-based; conditions: Reovirus-1, Vero cells; read-out: in vitro antiviral activity (EC50), none up to
[2] = test system: respiratory syncytial virus; assay: Virus panel, CPE assay: respiratory syncytial virus in Hela cells; assay type: cell-based; conditions: human respiratory syncytial virus, read-out: in vitro antiviral activity (EC50), none up to
[3] = test system: influenza B; assay: Virus panel: influenza B in MDCK cells; assay type: cell-based; conditions: read-out: in vitro antiviral activity (EC50), none up to
Source text: (§1) influenza A (H1N1), influenza A (H3N2), influenza B, in MDCK cells;

[4] = test system: HBV; assay: Anti-HBV test in infected HepAD38 cells (intracellular viral DNA by Q-PCR); assay type: cell-based; conditions: Hepatitis B virus, 144 h; infected HepAD38 cells; 50% reduction of viral DNA; day 6 post-induction
Method: These are hepatoma cells that have been stably transfected with a cDNA copy of the pregenomic RNA of wild-type virus. Withdrawal of tetracycline from the culture medium results in the initiation of viral replication. This offers the advantage, in contrast to the Hep G2.2.15 cell lines commonly used, that there is no, or very limited background viral DNA synthesis. Cells were cultured at 37° C. in a humidified 5% CO2/air atmosphere in seeding medium, DMEM/Ham's F12 (50/50) supplemented with 10% (v/v) heat-inactivated fetal calf serum, 100 IU/ml penicillin, 50 μg/ml streptomycin, 100 Ξg/ml kanamycin, 400 μg/ml G418, and 0.3 μg/ml tetracycline. […] After 2-3 days the cultures were induced for viral production by washing with prewarmed PBS and were fed with […] assay medium (seeding medium without tetracycline and G418) with or without the antiviral compounds. Medium was changed after 3 days. The antiviral effect was quantified by measuring levels of intracellular viral DNA at day 6 post-induction, by a real time quantitative PCR (Q-PCR) method. Total cellular DNA was extracted from the cells by means of a commercial kit. […] The reaction was analyzed using a SDS 7000. A plasmid containing the full length insert of the HBV genome was used to prepare the standard curve. The amount of viral DNA produced in treated cultures was expressed as a percentage of the mock treated samples. […] The cytostatic effect of the various compounds was assessed employing the parent hepatoma cell line HepG2. The effect of the compounds on exponentially growing HepG2 cells was evaluated by means of the MTS method. Briefly, cells were seeded at a density of 3000/well (96 well plate) and were allowed to proliferate for 3 days in the absence or presence of compounds after which the optical density was measured with a 96-well plate reader and cell density was determined.

[5] = test system: Punta Toro virus; assay: Virus panel, CPE assay: Punta Toro virus in Vero cells; assay type: cell-based; conditions: read-out: in vitro antiviral activity (EC50), none up to
[6] = test system: influenza A (H1N1); assay: Virus panel: influenza A (H1N1) in MDCK cells; assay type: cell-based; conditions: read-out: in vitro antiviral activity (EC50), none up to
Source text: as §1

[7] = test system: Sindbis virus; assay: Virus panel, CPE assay: Sindbis virus in Vero cells; assay type: cell-based; conditions: read-out: in vitro antiviral activity (EC50), none up to
[8] = Stability in complete medium (RPMI 1640 containing 10% heat-inactivated fetal calf serum), HPLC; assay type: in vitro ADME; conditions: for half-life at 0.1 mM: bovine, serum, initial concentration 0.1 mM, read-out: t1/2 complete medium; for half-life at 0.1 mM / product intact: 37° C.; for product intact: complete medium, degradation into the phosphonate; for degradation: culture medium
Method: (§2) Media and preparation of cell extracts. Culture medium was composed by RPMI 1640 containing 10% (v/v) heat-inactivated fetal calf serum and stored at −80° C. CEM-SS cell extracts were prepared according to a published procedure (Puech, F. et al. Antiv. Res. 1993, 22, 155-174). Exponentially growing CEM-SS cells were recovered by centrifugation (500 g, 4° C., 4 min), washed twice with PBS and resuspended in 10 mM Tris-HCl, 140 mM KCl (pH 7.4), at the concentration of 30×10^6 cells/mL. Cells were lyzed by ultrasonic treatment and cellular debris were removed by centrifugation (10000 g, 4° C., 20 min). The supernatant containing soluble proteins (3 mg/mL) was stored at −80° C.
Kinetic data and decomposition pathways for compounds 6 and 11 were studied at 37° C. (a) in complete medium (RPMI 1640 containing 10% heat-inactivated fetal calf serum (b) in total cells extracts (CEM-SS). For each kinetic study, the compound solution was diluted with a freshly thawed aliquot of the considered medium to obtain an initial concentration of 0.1 mM. The mixture was incubated at 37° C. and for the required time, an aliquot (10% solution) was taken and immediately frozen at −80° C. for further HPLC analysis. The crude sample was injected into the precolumn and eluted with buffer A during 5 min. Then, the switching valve for connecting the precolumn to the column was activated, and a linear gradient from buffer A to buffer B, increasing buffer B from 0% at 0 min to 20% at 40 min is applied. The retention times were 6, 26 min; 11, 29.5 min, PMEA, 24.3 min and (R)-PMPA, 27.8 min.
All the compounds were analyzed under the same conditions. The amount of remaining parent compound at each time point was used to determine the half-life of the compound. The product of degradation from parent compound was determined by comparison with corresponding references.

[9] = test system: CMSP (uninfected cells); assay: Cytotoxicity by MTT test in cultures of uninfected CMSP; conditions: text statement to Table VII
[10] = as above; conditions: human
[11] = Cytotoxicity in CEM cell cultures (cell density); assay type: cell-based; conditions: human, 50% reduction in cell density, read-out: TC50 (the source's name)
[12] = test system: vesicular stomatitis virus; assay: microbe, parasite or virus in culture; assay type: cell-based; conditions: HEL, read-out: in vitro antiviral activity (EC50), none up to
[13] = test system: HIV-1-LAI; assay: Anti-HIV test in CMSP cultures infected by HIV-1-LAI (RT activity in supernatants); assay type: cell-based; conditions: Human immunodeficiency virus 1, 168 h, read-out: EC50 (μM) HIV-1 (LAI)
[14] = test system: influenza A (H3N2); assay: Virus panel: influenza A (H3N2) in MDCK cells; assay type: cell-based; conditions: read-out: in vitro antiviral activity (EC50), none up to
Source text: as §1

[15] = test system: HIV-2 (ROD); assay: Anti-HIV test in CEM cell cultures, syncytium formation, HIV-2 (ROD); assay type: cell-based; conditions: Human immunodeficiency virus 2, CCRF-CEM, read-out: EC50 (μM) HIV-2
[16] = test system: HBV; assay: Anti-HBV test in infected Huh7 cells; assay type: cell-based; conditions: Hepatitis B virus, Huh-7, read-out: EC50 (μM) HBV
[17] = Cytostatic effect on parent hepatoma cell line HepG2 (MTS method); conditions: human
[18] = test system: Parainfluenza-3-virus; assay: Virus panel, CPE assay: Parainfluenza-3-virus in Vero cells; assay type: cell-based; conditions: read-out: in vitro antiviral activity (EC50), none up to
[19] = test system: HIV-1 (IIIB); assay: Anti-HIV test in CEM cell cultures, syncytium formation, HIV-1 (IIIB); assay type: cell-based; conditions: Human immunodeficiency virus 1, IIIB, CCRF-CEM, read-out: EC50 (μM) HIV-1
Method: Briefly, CEM cells (4.5×10^5 cells per ml) were suspended in fresh culture medium and infected with HIV-1 at 100 CCID50 per ml of cell suspension. Then, 100 μl of the infected cell suspension were transferred to microplate wells, mixed with 100 μl of the appropriate dilutions of the test compounds, and further incubated at 37° C. After 4 to 5 days, giant cell formation was recorded microscopically in the CEM cell cultures.

[20] = test system: Coxsackie B4; assay: Virus panel, CPE assay: Coxsackie B4 virus in Hela and Vero cells; assay type: cell-based; conditions: Enterovirus B, read-out: in vitro antiviral activity (EC50), none up to
[21] = Stability in total cell extracts (CEM-SS), HPLC; assay type: in vitro ADME; conditions: 37° C., 0.1 mM
Method: as §2
Kinetic data and decomposition pathways for compounds 6 and 11 were studied at 37° C. […]
All the compounds were analyzed under the same conditions. […] The product of degradation from parent compound was determined by comparison with corresponding references.

[22] = test system: Feline Herpes virus; assay: Virus panel: Feline Herpes virus in CRFK cells; assay type: cell-based
Source text: Feline Corona virus and Feline Herpes virus in CRFK cells.

[23] = test system: Herpes simplex virus-2 (G); assay: Virus panel, CPE assay: Herpes simplex virus-2 (G) in HEL cells; assay type: cell-based; conditions: Human alphaherpesvirus 2

| Compound | pEC50 [1] | pEC50 [2] | pEC50 [3] | EC50 [4] | pEC50 [5] | pEC50 [6] | pEC50 [7] | half-life at 0.1 mM [8] | product intact [8] | degradation [8] | CC50 at 7 days [10] | CC50 [11] | pEC50 [12] | EC50 [13] | pEC50 [14] | EC50 [15] | EC50 [16] | CC50 at 3 days [17] | pEC50 [18] | EC50 [19] | also measured |
| --- | --- | --- | --- | --- | --- | --- | --- | --- | --- | --- | --- | --- | --- | --- | --- | --- | --- | --- | --- | --- | --- |
| C[C@H](Cn1cnc2c(N)ncnc21)OCP(=O)(O)S (stereo partly drawn) [Compound 11, (R)-9-[2-(thiophosphonomethoxy)propyl]adenine] | < 3.70 | < 3.70 | < 3.70 | 2.26 µM | < 3.70 | < 3.70 | < 3.70 | > 24 h | ^b: product 77% intact (degradation into PMPA) | 20% | > 100 µM | > 165 µM | < 3.70 | 1.6 µM | < 3.70 | 8.6 µM | 5 µM | > 174 µM | < 3.70 | 11.1 µM | not cytotoxic (highest concentration tested) [9]: > 200 µM; pEC50 [20]: < 3.70; t1/2 cell extracts [21]: stable^c |
| Nc1ncnc2c1ncn2CCOCP(=O)(O)S (centres unmarked) [Compound 6, 9-[2-(thiophosphonomethoxy)ethyl]adenine] | < 3.70 | < 3.70 | < 3.70 | 9.6 µM | < 3.70 | < 3.70 | < 3.70 | > 24 h | ^a: product 80% intact (degradation into PMEA) | 20% | > 42 µM | > 332 µM | < 3.70 | 7 µM | < 3.70 | 10.4 µM | 4.5 µM | > 166 µM | < 3.70 | 12.2 µM | pEC50 [22]: 4.42; pEC50 [23]: 4.24; pEC50 [20]: < 3.70; t1/2 cell extracts [21]: stable^c |
